Values after ≈ are worked out from the molar mass of the structure shown. Active and inactive are the calls of the source. No cut-off for these calls is given here.

A short description of experiment [1]: Cytotoxicity against human 9KB cells. The conditions noted are these: read-out: ED50 (the source's name). Format: functional.
In experiment [2] the test system is P388. Kind of experiment: In vivo antitumor activity against mouse P388 cells at 7.5 mg/kg relative to control. Format: functional.
For experiment [3], the system named is B16. Kind of experiment: In vivo antitumor activity against mouse B16 cells at 1.5 to 12.0 mg/kg relative to control. Format: functional, organism-based.

For the compound `COc1cc([C@@H]2c3cc4c(cc3C[C@H]3COC(=O)[C@@H]32)OCO4)cc2c1OCO2` [AUSTROBAILIGNAN 1], the EC50 in experiment [1] was 0.027 µg/mL (≈ 0.0706 µM). The same compound had a T/C in experiment [2] of 125%. The result in experiment [3] was inactive.
For the compound `CC[C@H](CC[C@@H](C)[C@H]1CC[C@H]2[C@@H]3CC=C4C[C@@H](O)CC[C@]4(C)[C@H]3CC[C@]12C)C(C)C` [BETA-SITOSTEROL], the EC50 in experiment [1] amounted to 22 µg/mL (≈ 53 µM).
Take `CC(C)(O)[C@H](O)COc1c2occc2cc2ccc(=O)oc12` [HERACLENOL]: in experiment [1], the EC50 is above 100 µg/mL.
In the case of `CC(C)=CCOc1c2occc2cc2ccc(=O)oc12` [PENTOSALEN], the EC50 in experiment [1] was determined as 33 µg/mL (≈ 122 µM).
Same read-out and setting: the result for `COc1c2ccoc2c(OCC=C(C)C)c2oc(=O)ccc12` [PHELLOPTERIN] reads 7.2 µg/mL (≈ 24 µM); that for `O=C1OC[C@H](Cc2ccc3c(c2)OCO3)/C1=C\c1ccc2c(c1)OCO2` [SAVININ], 22 µg/mL (≈ 62.4 µM).
Still for that read-out and setting: under `COc1cc2ccc(=O)oc2cc1O` [SCOPOLETIN] stands 2.9 µg/mL (≈ 15.1 µM); under `CC1(C)C=Cc2c(ccc3ccc(=O)oc23)O1` [SESALIN], 31 µg/mL (≈ 136 µM); under `O=C1OCC(C(O)c2ccc3c(c2)OCO3)C1Cc1ccc2c(c1)OCO2` (stereo unspecified) [SVENTENIN], 23 µg/mL (≈ 62.1 µM).

In general, T/C refers to the ratio of treated to control.
